This assay has as its system BDF1 mice, M5076 sarcoma ip, median survival T/C. In words: NCI In Vivo Anticancer Drug Screen. Data for tumor model Sarcoma M5076 (intraperitoneal) in B6D2F1 (BDF1) mice. The settings on record: endpoint: median survival time, higher = longer survival. As for the experimental part: The antitumor activity of compounds was measured in mice bearing transplantable tumors. Survival or tumor size were measured and the results are expressed as the measurement made in the treated group (T) divided by the measurement made in the vehicle treated control group (C). The tumor model used in this assay is Sarcoma M5076 (intraperitoneal) in B6D2F1 (BDF1) mice

Where [1] appears, read: dose: 50.0 mg/kg/injection, schedule: Q04DX004 (ip), vehicle: saline with Tween-80.
Where [2] appears, read: dose: 100.0 mg/kg/injection, schedule: Q04DX004 (ip), vehicle: saline with Tween-80.
Where [3] appears, read: dose: 200.0 mg/kg/injection, schedule: Q04DX004 (ip), vehicle: saline with Tween-80.
Setting [4] is: dose: 400.0 mg/kg/injection, schedule: Q04DX004 (ip), vehicle: saline with Tween-80.

Several values for one entry are separate records, joined by “and”; a condition that tells them apart may be missing. Equal values may be shown once. Toxic doses and inconclusive results are not listed. Starred links: 1 amine or outer side, 2 acyl side, 3 side chain; linkers in the order of their positions; H or OH if unused. Positions of bridges follow the written chain, without caps; N, C: chain ends. Non-standard residues stand in square brackets, D forms with d. Residues, ends and D or L forms follow the SMILES beside them. Chains are numbered I, II in the order given. Actinocin(9to1) = Cc1c2oc3c(C)ccc(C(=O)[*:1])c3nc-2c(C(=O)[*:2])c(N)c1=O; aThr = C[C@H](O)[C@H](N)C(=O)O; NMeV = CN[C@H](C(=O)O)C(C)C; Sar = CNCC(=O)O

Take `CC(=O)OCc1cc(=O)n(C)c2c3c4c(cc12)c(C)cc(=O)n4CO3`: the T/C is 102 % of control (dose: 4.0 mg/kg/injection, schedule: Q01DX009 (ip), vehicle: Klucel (hydroxypropylcellulose) (HPC)); 102 % of control (dose: 5.0 mg/kg/injection, schedule: Q04DX005 (ip), vehicle: Klucel (hydroxypropylcellulose) (HPC)); 100 % of control (dose: 8.0 mg/kg/injection, schedule: Q01DX009 (ip), vehicle: Klucel (hydroxypropylcellulose) (HPC)); 100 % of control (dose: 10.0 mg/kg/injection, schedule: Q04DX005 (ip), vehicle: Klucel (hydroxypropylcellulose) (HPC)); 99 % of control (dose: 16.0 mg/kg/injection, schedule: Q01DX009 (ip), vehicle: Klucel (hydroxypropylcellulose) (HPC)); 165 % of control (dose: 20.0 mg/kg/injection, schedule: Q01DX009 (ip), vehicle: Klucel (hydroxypropylcellulose) (HPC)). The T/C was 116 % of control and 118 % of control (dose: 20.0 mg/kg/injection, schedule: Q04DX005 (ip), vehicle: Klucel (hydroxypropylcellulose) (HPC)); 99 % of control (dose: 32.0 mg/kg/injection, schedule: Q01DX009 (ip), vehicle: Klucel (hydroxypropylcellulose) (HPC)); 179 % of control (dose: 40.0 mg/kg/injection, schedule: Q01DX009 (ip), vehicle: Klucel (hydroxypropylcellulose) (HPC)); 102 % of control (dose: 40.0 mg/kg/injection, schedule: Q04DX005 (ip), vehicle: Klucel (hydroxypropylcellulose) (HPC)); 103 % of control (dose: 64.0 mg/kg/injection, schedule: Q01DX009 (ip), vehicle: Klucel (hydroxypropylcellulose) (HPC)); 92 % of control and 95 % of control (dose: 80.0 mg/kg/injection, schedule: Q04DX005 (ip), vehicle: Klucel (hydroxypropylcellulose) (HPC)).
Regarding `CC[N+](CC)(CC)CC`, the T/C (dose: 10.8 mg/kg/injection, schedule: Q04DX005 (ip), vehicle: saline with Tween-80) is 172 % of control.
With `CC1CCC(NC(=O)N(CCCl)N=O)CC1` (stereo unspecified), the T/C was 216 % of control and 163 % of control (dose: 3.0 mg/kg/injection, schedule: Q04DX004 (ip), vehicle: Klucel (hydroxypropylcellulose) (HPC)); 189 % of control and 193 % of control and 216 % of control (dose: 6.0 mg/kg/injection, schedule: Q04DX004 (ip), vehicle: Klucel (hydroxypropylcellulose) (HPC)); 216 % of control and 233 % of control and 320 % of control (dose: 12.0 mg/kg/injection, schedule: Q04DX004 (ip), vehicle: Klucel (hydroxypropylcellulose) (HPC)).
With `COC(=O)NC1C(C)OC(OC2C/C=C(/C)C3C=CC4C(OC5CC(OC6CCC(OC7CC(O)C(OC8CCC(O)C(C)O8)C(C)O7)C(C)O6)C(OC(C)=O)C(C)O5)C(C)CC(C)C4C3(C)/C(O)=C3/C(=O)OC4(CC(C=O)=CC(O)C4/C=C\2C)C3=O)CC1(C)[N+](=O)[O-]` (stereo unspecified), the T/C reads like this: (dose: 2.5 mg/kg/injection, schedule: Q04DX004 (ip), vehicle: water) 107 % of control; (dose: 5.0 mg/kg/injection, schedule: Q04DX004 (ip), vehicle: water) 96 % of control; (dose: 10.0 mg/kg/injection, schedule: Q04DX004 (ip), vehicle: water) 103 % of control.
In the case of `CC[C@]1(O)C[C@H]2CN(CCc3c([nH]c4ccccc34)[C@@](C(=O)OC)(c3cc4c(cc3OC)N(C)[C@H]3[C@@](O)(C(=O)OC)[C@H](OC(C)=O)[C@]5(CC)C=CCN6CC[C@]43[C@@H]65)C2)C1`, the T/C (dose: 0.38 mg/kg/injection, schedule: Q04DX005 (ip), vehicle: saline) is 180 % of control; the T/C (dose: 0.75 mg/kg/injection, schedule: Q04DX005 (ip), vehicle: saline) is 293 % of control; the T/C (dose: 1.5 mg/kg/injection, schedule: Q04DX005 (ip), vehicle: saline) was 202 % of control and 401 % of control; the T/C (dose: 3.0 mg/kg/injection, schedule: Q04DX005 (ip), vehicle: saline) was 401 % of control and 160 % of control.
Take `Nc1ccn(C2OC(CO)C(O)C2O)c(=O)n1` (stereo unspecified): the T/C is 164 % of control (dose: 125.0 mg/kg/injection, schedule: Q04DX005 (ip), vehicle: saline); 184 % of control (dose: 250.0 mg/kg/injection, schedule: Q04DX005 (ip), vehicle: saline); 185 % of control (dose: 500.0 mg/kg/injection, schedule: Q04DX005 (ip), vehicle: saline); 199 % of control (dose: 1000.0 mg/kg/injection, schedule: Q04DX005 (ip), vehicle: saline).
For `C=C1C(=O)OC2C1C(OC(=O)/C(C)=C\C)CC(C)=C1C(=O)C3OC3(C)C12O` (stereo unspecified), the T/C runs as follows: (dose: 1.25 mg/kg/injection, schedule: Q01DX009 (ip), vehicle: saline + alcohol) 97 % of control; (dose: 2.5 mg/kg/injection, schedule: Q01DX009 (ip), vehicle: saline + alcohol) 105 % of control; (dose: 5.0 mg/kg/injection, schedule: Q01DX009 (ip), vehicle: saline + alcohol) 105 % of control and 121 % of control; (dose: 20.0 mg/kg/injection, schedule: Q01DX009 (ip), vehicle: saline + alcohol) 117 % of control.
Take `OC(CBr)C(O)C(O)C(O)CBr` (stereo unspecified): the T/C is, setting by setting: under setting [1], 111 % of control; under setting [2], 114 % of control; (dose: 108.0 mg/kg/injection, schedule: Q04DX005 (ip), vehicle: saline with Tween-80) 122 % of control; under setting [3], 114 % of control; under setting [4], 114 % of control; (dose: 500.0 mg/kg/injection, schedule: Q04DX005 (ip), vehicle: saline with Tween-80) 176 % of control. In addition, the T/C by setting is: (dose: 800.0 mg/kg/injection, schedule: Q04DX004 (ip), vehicle: saline with Tween-80) 108 % of control; (dose: 833.0 mg/kg/injection, schedule: Q04DX005 (ip), vehicle: saline with Tween-80) 176 % of control.
As for `COC1=C(C)C(=O)C2=C(C1=O)C(CO)N1C(C#N)C3CC4C(C1C2N1CCOC41)N3C` (stereo unspecified), the T/C by setting is: (dose: 0.06 mg/kg/injection, schedule: Q01DX009 (ip), vehicle: saline + alcohol) 116 % of control; (dose: 0.13 mg/kg/injection, schedule: Q01DX009 (ip), vehicle: saline + alcohol) 95 % of control; (dose: 0.25 mg/kg/injection, schedule: Q01DX009 (ip), vehicle: saline + alcohol) 98 % of control; (dose: 0.5 mg/kg/injection, schedule: Q01DX009 (ip), vehicle: saline + alcohol) 103 % of control; (dose: 1.0 mg/kg/injection, schedule: Q01DX009 (ip), vehicle: saline + alcohol) 122 % of control; (dose: 62.5 micrograms/kg/injection, schedule: Q01DX009 (ip), vehicle: acid diluted with saline) 107 % of control. The T/C is 96 % of control (dose: 125.0 micrograms/kg/injection, schedule: Q01DX009 (ip), vehicle: acid diluted with saline); 96 % of control (dose: 250.0 micrograms/kg/injection, schedule: Q01DX009 (ip), vehicle: acid diluted with saline); 109 % of control (dose: 500.0 micrograms/kg/injection, schedule: Q01DX009 (ip), vehicle: acid diluted with saline).
`O=C1c2ccccc2C(Cl)(c2ccc(Cl)cc2)c2ccc(Cl)cc21` (stereo unspecified): the T/C under setting [1] was 116 % of control, the T/C under setting [2] was 107 % of control, the T/C under setting [3] was 108 % of control and the T/C under setting [4] is 100 % of control.
Turning to `O=C1c2ccccc2C(=O)c2c(NCCNCCO)ccc(NCCNCCO)c21`, the T/C is 277 % of control (dose: 5.0 mg/kg/injection, schedule: Q04DX005 (ip), vehicle: saline) and 357 % of control (dose: 10.0 mg/kg/injection, schedule: Q04DX005 (ip), vehicle: saline).
Consider `CCN(CC)CCCNc1nccc2c(C)c3[nH]c4ccncc4c3cc12`, for which the T/C is 152 % of control (dose: 0.63 mg/kg/injection, schedule: Q04DX004 (ip), vehicle: other); 191 % of control (dose: 1.25 mg/kg/injection, schedule: Q04DX004 (ip), vehicle: other); 179 % of control (dose: 2.5 mg/kg/injection, schedule: Q04DX004 (ip), vehicle: other); 260 % of control (dose: 5.0 mg/kg/injection, schedule: Q04DX004 (ip), vehicle: other); 208 % of control (dose: 10.0 mg/kg/injection, schedule: Q04DX004 (ip), vehicle: other).
As to `Cc1c2oc3c(C)ccc(C(=O)N[C@@H]4C(=O)N[C@H](C(C)C)C(=O)N5CCC[C@H]5C(=O)N(C)CC(=O)N(C)[C@@H](C(C)C)C(=O)O[C@H]4C)c3nc-2c(C(=O)N[C@@H]2C(=O)N[C@H](C(C)C)C(=O)N3CCC[C@H]3C(=O)N(C)CC(=O)N(C)[C@@H](C(C)C)C(=O)O[C@H]2C)c(N)c1=O` (I: [aThr][dV]P[Sar][NMeV] / II: [aThr][dV]P[Sar][NMeV]; ester I:1-I:C, II:1-II:C; linker I:N-II:N via Actinocin(9to1)), the T/C by setting is: (dose: 0.1 mg/kg/injection, schedule: Q04DX004 (ip), vehicle: saline + alcohol) 165 % of control; (dose: 0.2 mg/kg/injection, schedule: Q04DX004 (ip), vehicle: saline + alcohol) 178 % of control.

The values are drawn from PubChem BioAssay AID286 (DTP/NCI, 2004).
